Reference: PMC7525093, “Bis-Quinolinium Cyclophane Blockers of SK Potassium Channels Are Antagonists of M3 Muscarinic Acetylcholine Receptors” (Frontiers in Pharmacology, 2020)
Structures can show the parent of a compound that is named as a salt. Where two headings read alike, the source gives them in different places. One block for each molecule: values may come before it. Ends that are not written are not given here.

Tests used:
[1] = molecular target: T1, human M3 muscarinic acetylcholine receptor (Homo sapiens, UniProt P20309); assay: R-CEPIAer ER calcium assay of Gq-coupled receptor activation, M3-transfected CHO-K1 cells; format: cell-based; conditions: for Hill slope of inhibition curve, M3 receptor: Hill equation fit
T1 construct: host or cells: CHO-K1 cells, stably transfected
T1 sequence (P20309 whole entry): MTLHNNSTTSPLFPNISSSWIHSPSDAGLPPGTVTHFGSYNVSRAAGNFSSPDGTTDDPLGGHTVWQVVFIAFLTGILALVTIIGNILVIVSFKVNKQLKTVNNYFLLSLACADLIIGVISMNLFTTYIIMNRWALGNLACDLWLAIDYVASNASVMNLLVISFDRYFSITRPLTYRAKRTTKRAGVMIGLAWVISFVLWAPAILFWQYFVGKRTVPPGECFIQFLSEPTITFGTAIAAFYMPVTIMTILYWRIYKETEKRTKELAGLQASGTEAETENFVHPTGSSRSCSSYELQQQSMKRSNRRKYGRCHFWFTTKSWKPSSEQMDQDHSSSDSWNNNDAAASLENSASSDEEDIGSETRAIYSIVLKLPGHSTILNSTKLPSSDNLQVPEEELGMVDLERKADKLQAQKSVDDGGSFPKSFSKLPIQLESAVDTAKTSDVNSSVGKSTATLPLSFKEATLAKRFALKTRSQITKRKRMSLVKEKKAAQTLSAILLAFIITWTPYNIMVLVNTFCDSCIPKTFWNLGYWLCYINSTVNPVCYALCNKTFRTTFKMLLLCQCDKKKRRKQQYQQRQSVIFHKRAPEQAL
Procedure: The binding of antagonists to Gq-coupled receptors was determined by measuring IP3-mediated calcium depletion from the endoplasmic reticulum (ER). This was accomplished using CHO-K1 cells stably transfected with human M3 muscarinic acetylcholine receptor (CEM3000000, cDNA Resource Center, Bloomsburg University) and R-CEPIAer, a low affinity ER-targeted calcium indicator fluorescent protein ([Suzuki et al., 2014]). R-CEPIAer reporting of ER calcium concentration was assessed using 564 nm excitation light (>590 long-pass emission) at 20 second intervals on a Nikon swept-field confocal microscope using slit-scan mode, 2x2 Binning, and 100 millisecond frames. F/Fmax was fluorescence intensity normalized to maximal fluorescence intensity during the experiment. The response of cells to Gq-coupled receptor agonist were measured as the change in F/Fmax (ΔF/Fmax) from preagonist value to fluorescence minimum during agonist application (that occurs by IP3-mediated ER calcium depletion). […] Perfusion of each agonist application was for 2 min, while the antagonist overlapped and preceded the second agonist application by 3 min. […] IC50 was calculated by assaying fractional inhibition using a dose-response of antagonist concentrations (i.e. Figure 1D ). For assays of other receptors such as the M1 and M5 muscarinic receptors, H1 histamine and P2Y1 purinergic receptors, these receptors were transiently co-transfected with the pCMV R-CEPIAer plasmid (a gift from Masamitsu Iino (Addgene plasmid # 58216; http://n2t.net/addgene:58216; RRID : Addgene_58216)) into CHO cells using polyethylenimine [according to previous methods ([Longo et al., 2013])]. IC50 and EC50 values were estimated by fitting the dose-response relationship to a Hill equation.
To obtain a pKB using a Schild analysis ([Arunlakshana and Schild, 1959]), the acetylcholine EC50 was measured in the absence of UCL1684 and EC50′ measured in the presence of increasing concentrations of UCL1684. These values were used to calculate a dose ratio (DR = EC50′/EC50) for each UCL1684 concentration. The log(DR − 1) was plotted vs. log UCL1684 concentrations and fit to a linear equation where the theoretical X-intercept was used to estimate a pKB.

mouse trachea = assay: Isometric tracheal tension measurement (organ bath); conditions: for IC50: cumulative concentrations, Hill function, read-out: IC50, relaxation of carbachol-precontracted trachea; for Relaxation response of trachea: TrpM channel blocker
Procedure: Mice used in these studies were BALB/C mice from Jackson Labs. All animal procedures were reviewed and approved by the University of Texas Health Science Center at San Antonio Institutional Animal Care and Use Committee. For tracheal constriction studies, animals were deeply anesthetized with isoflurane and then sacrificed by cervical dislocation. Isometric tracheal contraction measurements were performed as previously described ([Semenov et al., 2012]). Trachea were removed and surrounding tissues dissected in ice-cold physiologic saline solution (PSS) consisting of 119 mM NaCl, 4.7 mM KCl, 2.0 mM CaCl2, 1.0 mM KH2PO4, 1.17 mM MgSO4, 18 mM NaHCO3, 0.026 mM EDTA, 11 mM glucose, and 12.5 mM sucrose. Trachea were cut below the pharynx and above the primary bronchus bifurcation. Two metal wires, attached to a force transducer and micrometer (Radnoti, LLC), were threaded into the lumen of the trachea. Trachea were placed into an oxygenated organ bath (95% O2, 5% CO2), at 37°C, pH 7.35 (after bubbling with 95% O2–5% CO2). Tracheal resting tension was readjusted to 1 gram over 1 h and then challenged with 67 mM potassium PSS with NaCl adjusted to 56.7 mM to maintain proper osmolarity (KPS). Trachea were challenged two or more times until reproducible contractile responses were achieved. All subsequent experimental drug responses were normalized to the KPS response. Bladder measurements were conducted in a similar manner as trachea with identical solutions. The bladder was excised and formed into a ring by cutting anterior and posterior portions before mounting on metal wires for force measurements. For the aorta preparation, the ascending thoracic aorta was excised and cut into 2–3 mm sections before mounting on wires for force measurements.

SK potassium channels = conditions: cited from earlier work
CNG1 = tested on: CNG1; set-up: method as in Rosenbaum et al., 2004; conditions: ref Rosenbaum et al., 2004; read-out: IC50, block of CNG1 channels; cited from earlier work
CNG2 = tested on: CNG2; set-up: method as in Rosenbaum et al., 2004; conditions: ref Rosenbaum et al., 2004; read-out: IC50, block of CNG2 channels; cited from earlier work
mouse = tested on: mouse; set-up: method as in Gamboa-Vujicic et al., 1993; conditions: ref Gamboa-Vujicic et al., 1993, cited from earlier work
[2] = 5 μM antagonist, 0.5 μM carbachol, 0 = none, 1 = complete inhibition

IC50 [1]: 83000 nM
Hill slope of inhibition curve, M3 receptor ([1]; 0.5 μM carbachol): 1.7 ± 0.35
Effect on M3 carbachol response ([1]; 10 μM antagonist, 0.5 μM carbachol): undetectable
Fractional inhibition of second carbachol response ([1]; 100 μM antagonist, 0.5 μM carbachol): 0.60 ± 0.03
IC50 (mouse trachea; 0.5 μM carbachol): 31.5 ± 2 µM
IC50 (mouse trachea; Mus musculus, 0.5 μM carbachol): 31 µM
Molecule: Cl.c1ccc2c(c1)CCC[C@H]2Nc1nc2ccccc2[nH]1 [NS8593, N-[(1R)-1,2,3,4-Tetrahydro-1-naphthalenyl]-1H-benzimidazol-2-amine hydrochloride]
Relaxation of precontracted trachea (mouse trachea; 76.8 μM (highest concentration), 0.5 μM carbachol): complete relaxation

Molecule: c1ccc2c(c1)c1cc[n+]2CCCCC[n+]2ccc(c3ccccc32)NCCCCCN1 [UCL 1848, 8,14-Diaza-1,7(1,4)-diquinolinacyclotetradecaphane trifluoroacetate salt]
IC50 [1]: 1000 nM
Hill slope of inhibition curve, M3 receptor ([1]; 0.5 μM carbachol): 1.47 ± 0.46
Fractional inhibition of second carbachol response [1, 2]: 0.98 ± 0.01
IC50 (SK potassium channels; effects on SK-dependent fast-afterhyperpolarizing currents, ref Campos Rosa et al., 1996, Chen et al., 2000, Blank et al., 2004, read-out: IC50, SK potassium channels): 2 nM
IC50 (SK potassium channels; ref Chen et al., 2000, read-out: IC50, block of SK channels): 2.7 nM

Molecule: CCCCCCCCCCCCC/C=C/[C@@H](O)[C@@H](N)CO [d-erthyro-sphingosine]
Relaxation response of trachea (mouse trachea; 8.1 μM): 14.9 ± 6.0

IC50 [1]: 270 nM
Hill slope of inhibition curve, M3 receptor ([1]; 0.5 μM carbachol): 0.90 ± 0.29
Fractional inhibition of second carbachol response [1, 2]: 0.99 ± 0.003
Molecule: Cc1cc(=N)c2ccccc2n1CCCCCCCCCCn1c(C)cc(=N)c2ccccc21.Cl.Cl [dequalinium chloride, 1-[10-(4-imino-2-methyl-1,4-dihydroquinolin-1-yl)decyl]-2-methyl-1,4-dihydroquinolin-4-imine dihydrochloride]
IC50 (SK potassium channels; ref Castle et al., 1993, Dunn, 1994, read-out: IC50, block of SK potassium channels): 1500 nM
IC50 (CNG1): 190 nM
IC50 (CNG2): 2400 nM

Molecule: Cc1cc(N)c2ccccc2[n+]1CCCCCCCCCC[n+]1c(C)cc(N)c2ccccc21.[Cl-].[Cl-] [dequalinium chloride, 1-[10-(4-imino-2-methyl-1,4-dihydroquinolin-1-yl)decyl]-2-methyl-1,4-dihydroquinolin-4-imine dihydrochloride]
LD50 (mouse; intraperitoneal administration): 18.3 mg/kg
LD50 (mouse; oral administration): 300 mg/kg

Molecule: CC(Cc1ccc(O)c(O)c1)C(C)Cc1ccc(O)c(O)c1 (stereo not drawn) [nordihydroguaiaretic acid]
Relaxation response of trachea (mouse trachea; 25 μM): 12.4 ± 8.5

Molecule: Apamin: peptide blocker of SK channels (CNCKAPETALCARRCQQH; not fully specified (C-terminus, bridges); cysteine pairing not given here; UniProt P01500 28-45, looked up)
Relaxation of ASM contractions (mouse trachea; 100 nM, 0.5 μM carbachol): did not relax ASM contractions
Relaxation response of trachea, single dose (mouse trachea; 100 nM, 0.5 μM carbachol): −15 ± 7
